Assay results taken from ChEMBL document CHEMBL1201862, “PubChem BioAssay data set” (2004).
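All cell lines were grown in 96-well plates and treated with compound for 48 hours. GI50 marks 50% less growth.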 Calls of active or inactive are those of the source. No stated cut-off is given here; in the data, active = GI50 up to about 1.1 µM and inactive = higher.

What was measured:
Experiment in all cases: NCI anticancer screen, dose series, 48 h
CAKI-1 = test system: CAKI-1
MCF7 = test system: MCF7
SK-MEL-28 = test system: SK-MEL-28
SK-MEL-5 = test system: SK-MEL-5
HCT-15 = test system: HCT-15
MDA-MB-231 = test system: MDA-MB-231
RXF 393 = test system: RXF 393
HT-29 = test system: HT-29
LOX IMVI = test system: LOX IMVI
A498 = test system: A498
K562 = test system: K562
RPMI-8226 = test system: RPMI-8226
NCI-H226 = test system: NCI-H226
HOP-92 = test system: HOP-92
U-251 = test system: U-251
SN12C = test system: SN12C
OVCAR-3 = test system: OVCAR-3
HCC 2998 = test system: HCC 2998
DU-145 = test system: DU-145
SNB-75 = test system: SNB-75

Measured: GI50

C/C(Cc1ccc2c(c1)OCO2)=N\N=c1\sc2ccccc2n1C
inactive: CAKI-1 > 100 µM | MCF7 72.9 µM | SK-MEL-28 > 100 µM | SK-MEL-5 45.2 µM | MDA-MB-231 > 100 µM | RXF 393 > 100 µM | HT-29 42.8 µM | LOX IMVI > 100 µM | A498 > 100 µM | K562 > 100 µM | RPMI-8226 65.9 µM | NCI-H226 > 100 µM | HOP-92 84.9 µM | U-251 > 100 µM | SN12C > 100 µM | OVCAR-3 > 100 µM | HCC 2998 > 100 µM | DU-145 > 100 µM
68.4 µM: HCT-15

CC(NC(CC12CC3CC(CC(C3)C1)C2)C(N)=O)c1ccccc1 (configuration not stated)
31.7 µM: HCT-15
inactive: CAKI-1 23.3 µM | MCF7 35 µM | SK-MEL-28 20 µM | SK-MEL-5 13.4 µM | MDA-MB-231 29.3 µM | HT-29 21 µM | LOX IMVI 15.7 µM | A498 14.6 µM | K562 17.5 µM | RPMI-8226 15.7 µM | U-251 13.3 µM | OVCAR-3 13.2 µM | HCC 2998 17.5 µM | DU-145 24.7 µM

NNc1[nH]c(=S)[nH]c1C(N)=O
> 100 µM: HCT-15
inactive: MCF7 > 100 µM | SK-MEL-28 > 100 µM | SNB-75 > 100 µM | SK-MEL-5 > 100 µM | MDA-MB-231 > 100 µM | RXF 393 > 100 µM | HT-29 > 100 µM | LOX IMVI > 100 µM | A498 > 100 µM | RPMI-8226 > 100 µM | NCI-H226 > 100 µM | U-251 > 100 µM | SN12C > 100 µM | OVCAR-3 > 100 µM | HCC 2998 > 100 µM | DU-145 > 100 µM

COC(=O)Nc1nc(=O)c2cc(OC)c(OC)cc2[nH]1
inactive: CAKI-1 20.2 µM | MCF7 6.15 µM | SK-MEL-28 63 µM | SNB-75 11.6 µM | SK-MEL-5 6.35 µM | MDA-MB-231 81.3 µM | HT-29 6.68 µM | A498 71.9 µM | K562 3.59 µM | NCI-H226 37.6 µM | U-251 61.5 µM | SN12C 64.9 µM | OVCAR-3 > 100 µM | HCC 2998 71.3 µM | DU-145 32.7 µM
17.5 µM: HCT-15

Cc1cccc(Nc2nc3ccccc3nc2NS(=O)(=O)c2ccc(N)cc2)c1
inactive: CAKI-1 30.7 µM | MCF7 24.4 µM | SK-MEL-28 27.7 µM | SNB-75 52.8 µM | SK-MEL-5 35.5 µM | MDA-MB-231 36.3 µM | RXF 393 18.5 µM | HT-29 48.3 µM | LOX IMVI 52.1 µM | K562 25.2 µM | RPMI-8226 23.4 µM | NCI-H226 60.4 µM | HOP-92 40.3 µM | U-251 20.7 µM | SN12C 36.6 µM | OVCAR-3 38.5 µM | HCC 2998 30.9 µM | DU-145 37.2 µM
34.1 µM: HCT-15

C[Si](C)(C)C1=C2C(=O)c3ccccc3C(=O)C2=C([Si](C)(C)C)[C@@H]2CCCC[C@H]12
inactive: CAKI-1 > 100 µM | MCF7 > 100 µM | SK-MEL-28 > 100 µM | SK-MEL-5 > 100 µM | MDA-MB-231 > 100 µM | RXF 393 > 100 µM | LOX IMVI > 100 µM | A498 > 100 µM | K562 > 100 µM | RPMI-8226 > 100 µM | HOP-92 > 100 µM | U-251 > 100 µM | SN12C > 100 µM | OVCAR-3 > 100 µM | HCC 2998 > 100 µM | DU-145 > 100 µM
> 100 µM: HCT-15

COc1ccc(N2C(=O)C3c4[nH]c5ccccc5c4C4CCCCCCCC4C3C2=O)cc1 (configuration not stated)
> 10 µM: HCT-15
inactive: CAKI-1 > 10 µM | MCF7 > 10 µM | SK-MEL-28 > 10 µM | SNB-75 5.22 µM | SK-MEL-5 > 10 µM | MDA-MB-231 > 10 µM | RXF 393 > 10 µM | HT-29 > 10 µM | A498 > 10 µM | K562 > 10 µM | RPMI-8226 > 10 µM | NCI-H226 > 10 µM | U-251 > 10 µM | SN12C > 10 µM | OVCAR-3 > 10 µM | HCC 2998 > 10 µM | DU-145 > 10 µM

COc1cc(/C=C/C(=O)OCC23CC[C@@]4(C(=O)O)CCC(C)[C@H](C)C4C2=CCC2[C@@]4(C)CC[C@H](O)C(C)(C)C4CC[C@]23C)ccc1O (some centres not stated)
21.6 µM: HCT-15
inactive: CAKI-1 44.4 µM | MCF7 10.7 µM | SK-MEL-28 37.8 µM | SK-MEL-5 16.1 µM | MDA-MB-231 46.3 µM | RXF 393 12.7 µM | HT-29 20.4 µM | LOX IMVI 15.6 µM | A498 32.4 µM | K562 27 µM | NCI-H226 27.5 µM | U-251 27.9 µM | SN12C 8.09 µM | OVCAR-3 3.88 µM | HCC 2998 54.1 µM | DU-145 10.2 µM

COc1ccc(C2(C3c4cc(OC)c(OC)cc4CCN3C)SCCCS2)cc1O (configuration not stated)
> 100 µM: HCT-15
inactive: CAKI-1 > 100 µM | MCF7 > 100 µM | SK-MEL-28 68.2 µM | SK-MEL-5 > 100 µM | MDA-MB-231 > 100 µM | RXF 393 > 100 µM | HT-29 49.3 µM | LOX IMVI > 100 µM | A498 > 100 µM | K562 95.1 µM | RPMI-8226 > 100 µM | HOP-92 76.2 µM | U-251 > 100 µM | SN12C > 100 µM | OVCAR-3 > 100 µM | HCC 2998 > 100 µM | DU-145 > 100 µM

COc1ccc(-c2cc(O)c3cccnc3n2)cc1
inactive: CAKI-1 17.9 µM | MCF7 19 µM | SK-MEL-28 44 µM | MDA-MB-231 > 100 µM | RXF 393 44.5 µM | HT-29 15.7 µM | LOX IMVI 28.1 µM | A498 63.5 µM | K562 25.8 µM | RPMI-8226 22.9 µM | NCI-H226 45.1 µM | SN12C 36.7 µM | HCC 2998 82 µM | DU-145 64.6 µM
34.3 µM: HCT-15

c1ccc(C(=NCCC2CNc3ccccc32)c2ccccc2)cc1 (configuration not stated)
> 100 µM: HCT-15
inactive: CAKI-1 > 100 µM | MCF7 > 100 µM | SK-MEL-28 > 100 µM | SK-MEL-5 > 100 µM | MDA-MB-231 > 100 µM | RXF 393 > 100 µM | HT-29 > 100 µM | A498 > 100 µM | K562 > 100 µM | RPMI-8226 > 100 µM | HOP-92 > 100 µM | U-251 > 100 µM | OVCAR-3 > 100 µM | HCC 2998 > 100 µM | DU-145 > 100 µM

C[C@]12CC[C@H](O)CC1=CC[C@@H]1[C@@H]2CC[C@]2(C)NC(=O)/C(=C\c3ccccc3)C[C@@H]12
inactive: CAKI-1 25.2 µM | MCF7 14.4 µM | SK-MEL-28 16.7 µM | SNB-75 19.6 µM | SK-MEL-5 12.9 µM | MDA-MB-231 16 µM | RXF 393 13.5 µM | HT-29 14.3 µM | LOX IMVI 16.8 µM | A498 15.2 µM | K562 39.6 µM | RPMI-8226 21.6 µM | NCI-H226 14.9 µM | U-251 14.1 µM | SN12C 23 µM | OVCAR-3 11.9 µM | HCC 2998 13.4 µM | DU-145 16.4 µM
17.4 µM: HCT-15

Cn1c(=O)oc2cc(C(=S)N3CCCCC3)ccc21
> 100 µM: HCT-15
inactive: CAKI-1 > 100 µM | MCF7 > 100 µM | SK-MEL-28 > 100 µM | SNB-75 > 100 µM | SK-MEL-5 > 100 µM | MDA-MB-231 > 100 µM | RXF 393 > 100 µM | HT-29 > 100 µM | LOX IMVI > 100 µM | A498 > 100 µM | K562 > 100 µM | RPMI-8226 > 100 µM | NCI-H226 > 100 µM | U-251 > 100 µM | SN12C > 100 µM | OVCAR-3 > 100 µM | DU-145 > 100 µM

Cc1cc2ncn(C3CCCO3)c2cc1C (configuration not stated)
inactive: CAKI-1 > 100 µM | MCF7 > 100 µM | SK-MEL-28 > 100 µM | SNB-75 71.6 µM | SK-MEL-5 > 100 µM | MDA-MB-231 > 100 µM | RXF 393 > 100 µM | HT-29 > 100 µM | LOX IMVI > 100 µM | K562 > 100 µM | RPMI-8226 > 100 µM | NCI-H226 > 100 µM | HOP-92 > 100 µM | U-251 > 100 µM | SN12C > 100 µM | OVCAR-3 > 100 µM | HCC 2998 > 100 µM | DU-145 > 100 µM
> 100 µM: HCT-15

COC(=O)C1(NC(=O)C(Cc2ccccc2)N(C(=O)OC(C)(C)C)C(=O)OC(C)(C)C)CCCC1 (configuration not stated)
66.4 µM: HCT-15
inactive: MCF7 27.5 µM | SK-MEL-28 > 100 µM | SNB-75 > 100 µM | SK-MEL-5 > 100 µM | MDA-MB-231 80.9 µM | LOX IMVI > 100 µM | A498 25.8 µM | K562 43 µM | RPMI-8226 20 µM | NCI-H226 > 100 µM | HOP-92 59.2 µM | U-251 49.5 µM | SN12C > 100 µM | HCC 2998 19.9 µM | DU-145 > 100 µM

O=C1CC2[C@@H](N3CCCC3)CCC(N1Cc1ccccc1)C2(O)O (some centres not stated)
inactive: CAKI-1 > 100 µM | MCF7 > 100 µM | SK-MEL-28 > 100 µM | SK-MEL-5 > 100 µM | MDA-MB-231 > 100 µM | RXF 393 > 100 µM | HT-29 > 100 µM | LOX IMVI > 100 µM | A498 > 100 µM | K562 > 100 µM | NCI-H226 > 100 µM | HOP-92 > 100 µM | U-251 > 100 µM | SN12C > 100 µM | OVCAR-3 > 100 µM | HCC 2998 > 100 µM | DU-145 > 100 µM
> 100 µM: HCT-15
